Results: ChEMBL document CHEMBL2424515, “Identification of novel substrates and structure-activity relationship of cellular uptake mediated by human organic cation transporters 1 and 2” (J Med Chem, 2013)

T1: Solute carrier family 22 member 2 (Homo sapiens, UniProt O15244)
T1 sequence (O15244 whole entry): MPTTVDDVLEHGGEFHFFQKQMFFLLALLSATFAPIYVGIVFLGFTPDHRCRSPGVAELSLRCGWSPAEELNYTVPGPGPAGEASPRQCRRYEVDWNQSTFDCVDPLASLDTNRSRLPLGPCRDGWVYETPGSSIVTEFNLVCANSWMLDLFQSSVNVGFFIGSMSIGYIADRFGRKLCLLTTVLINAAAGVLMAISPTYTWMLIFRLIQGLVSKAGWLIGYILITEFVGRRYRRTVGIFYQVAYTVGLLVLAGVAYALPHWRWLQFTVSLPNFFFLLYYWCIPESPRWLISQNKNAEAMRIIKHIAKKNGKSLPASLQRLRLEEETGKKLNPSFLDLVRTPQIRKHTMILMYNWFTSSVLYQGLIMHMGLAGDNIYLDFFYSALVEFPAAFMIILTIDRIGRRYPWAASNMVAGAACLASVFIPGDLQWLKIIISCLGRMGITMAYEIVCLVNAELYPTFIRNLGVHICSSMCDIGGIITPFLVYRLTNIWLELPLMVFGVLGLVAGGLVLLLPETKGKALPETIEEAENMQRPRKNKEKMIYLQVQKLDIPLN

T2: OCT1 (SLC22A1) (Homo sapiens, UniProt O15245)
T2 sequence (O15245 whole entry): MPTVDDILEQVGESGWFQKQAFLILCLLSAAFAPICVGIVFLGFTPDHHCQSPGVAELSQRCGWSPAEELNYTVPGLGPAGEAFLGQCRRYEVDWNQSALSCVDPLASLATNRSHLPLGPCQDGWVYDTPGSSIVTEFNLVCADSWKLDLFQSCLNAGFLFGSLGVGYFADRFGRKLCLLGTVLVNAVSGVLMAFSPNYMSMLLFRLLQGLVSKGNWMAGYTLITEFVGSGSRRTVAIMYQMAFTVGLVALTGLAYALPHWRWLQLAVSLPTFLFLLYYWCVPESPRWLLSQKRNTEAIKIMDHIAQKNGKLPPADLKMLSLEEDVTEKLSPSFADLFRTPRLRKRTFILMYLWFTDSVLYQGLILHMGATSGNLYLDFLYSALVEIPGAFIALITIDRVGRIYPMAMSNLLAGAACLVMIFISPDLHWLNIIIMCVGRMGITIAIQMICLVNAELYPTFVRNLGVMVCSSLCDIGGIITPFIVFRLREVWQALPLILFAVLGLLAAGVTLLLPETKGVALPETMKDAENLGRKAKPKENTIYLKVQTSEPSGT

T3: OCT2 (SLC22A2) (Homo sapiens, UniProt O15244)
T3 sequence (O15244 whole entry): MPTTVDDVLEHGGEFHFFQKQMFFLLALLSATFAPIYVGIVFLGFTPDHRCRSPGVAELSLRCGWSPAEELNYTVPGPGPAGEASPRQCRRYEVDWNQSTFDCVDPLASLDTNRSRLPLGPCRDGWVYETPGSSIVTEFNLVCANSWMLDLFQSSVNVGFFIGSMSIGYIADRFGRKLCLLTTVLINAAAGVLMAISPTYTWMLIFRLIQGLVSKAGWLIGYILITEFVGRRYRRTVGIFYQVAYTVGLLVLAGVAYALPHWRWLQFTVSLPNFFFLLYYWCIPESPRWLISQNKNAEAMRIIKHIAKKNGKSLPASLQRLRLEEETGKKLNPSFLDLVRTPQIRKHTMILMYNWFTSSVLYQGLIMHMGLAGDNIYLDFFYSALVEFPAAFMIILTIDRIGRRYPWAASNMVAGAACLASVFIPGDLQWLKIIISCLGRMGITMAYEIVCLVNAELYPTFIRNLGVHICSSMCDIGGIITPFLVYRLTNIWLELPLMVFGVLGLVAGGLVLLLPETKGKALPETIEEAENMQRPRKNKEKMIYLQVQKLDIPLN

T4: Solute carrier family 22 member 1 (Homo sapiens, UniProt O15245)
T4 sequence (O15245 whole entry): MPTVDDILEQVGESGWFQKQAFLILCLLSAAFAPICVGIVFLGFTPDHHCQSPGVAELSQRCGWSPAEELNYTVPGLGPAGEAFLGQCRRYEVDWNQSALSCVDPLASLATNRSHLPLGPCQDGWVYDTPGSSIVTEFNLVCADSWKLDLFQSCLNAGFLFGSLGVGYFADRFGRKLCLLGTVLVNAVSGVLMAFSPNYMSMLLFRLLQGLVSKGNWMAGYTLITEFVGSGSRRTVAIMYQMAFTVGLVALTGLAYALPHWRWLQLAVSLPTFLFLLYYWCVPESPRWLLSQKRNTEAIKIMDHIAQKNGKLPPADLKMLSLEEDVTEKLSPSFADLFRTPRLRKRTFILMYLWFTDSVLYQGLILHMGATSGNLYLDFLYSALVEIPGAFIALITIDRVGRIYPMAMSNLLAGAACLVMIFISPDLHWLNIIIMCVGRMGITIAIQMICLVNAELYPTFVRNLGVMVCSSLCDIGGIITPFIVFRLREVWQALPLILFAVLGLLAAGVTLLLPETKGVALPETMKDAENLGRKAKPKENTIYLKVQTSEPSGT


Assays:
[1] = molecular target: T1, Solute carrier family 22 member 2; test: Cellular uptake in human HEK293 cells assessed as human OCT2-mediated drug transport at 2.5 uM after 4 mins by LC-MS/MS analysis; type: ADME, cell-based; conditions: hek293, 4 min
OCT1 (SLC22A1) = molecular target: T2, OCT1 (SLC22A1); test: Cellular uptake in human HEK293 cells assessed as human OCT1-mediated drug transport at 2.5 uM after 4 mins by LC-MS/MS analysis relative to passive uptake; type: ADME, cell-based; conditions: HEK293 cells expressing human OCT1, read-out: FC
OCT2 (SLC22A2) = molecular target: T3, OCT2 (SLC22A2); test: Cellular uptake in human HEK293 cells assessed as human OCT2-mediated drug transport at 2.5 uM after 4 mins by LC-MS/MS analysis relative to passive uptake; type: ADME, cell-based; conditions: HEK293 cells expressing human OCT2, read-out: FC
[2] = molecular target: T4, Solute carrier family 22 member 1; test: Cellular uptake in human HEK293 cells assessed as human OCT1-mediated drug transport at 2.5 uM after 4 mins by LC-MS/MS analysis; type: ADME, cell-based; conditions: hek293, 4 min
[3] = substrate: CN/C(=N/CCSCc1nc[nH]c1C)NC#N; test: cells, lysate or membranes named
[4] = substrate: CC[N+](CC)(CC)CC; test: cells, lysate or membranes named

| Molecule | Drug uptake [1] [pmol/mg] | uptake ratio at 4 min, 2.5 µM (OCT1 (SLC22A1)) | uptake ratio at 4 min, 2.5 µM (OCT2 (SLC22A2)) | Drug uptake [2] [pmol/mg] | Km [3] [µM] | Km [4] [µM] |
| --- | --- | --- | --- | --- | --- | --- |
| CCC(NC(C)C)C(O)c1ccc(O)c2[nH]c(=O)ccc12 (centres undefined) [PROCATEROL] | 14 | 11 | 1.9 | 140 |  |  |
| [H]/N=C(/N)N/C(=N/[H])NCCc1ccccc1 [PHENFORMIN] | 450 | > 39 | > 35 | 570 |  |  |
| CNC(=C[N+](=O)[O-])NCCSCc1ccc(CN(C)C)o1 [RANITIDINE] | 22 | 18 | 1.6 | 600 |  |  |
| NC(=O)Nc1sc(-c2cccc(OC3CCNC3)c2)cc1C(N)=O (racemic) | 21 | 68 | 1.6 | 1352 |  |  |
| O=C(NCCNCC(O)COc1ccc(O)cc1)N1CCOCC1 (centres undefined) [XAMOTEROL] | 5.2 | 43 | 1.6 | 230 |  |  |
| NC(=O)Nc1sc(-c2ccccc2O[C@@H]2CCNC2)cc1C(N)=O | 6.6 | 15 | 1.1 | 586 |  |  |
| NC(=O)Nc1sc(-c2ccc(OC3CCNC3)cc2)cc1C(N)=O (racemic) | 8.5 | 73 | 1.4 | 1493 |  |  |
| NC(=O)Nc1sc(-c2ccccc2OC2CCNCC2)cc1C(N)=O | 35 | 17 | 1.8 | 821 |  |  |
| NC(=O)Nc1sc(-c2ccccc2O[C@H]2CCNC2)cc1C(N)=O | 37 | 26 | 1.9 | 1047 |  |  |
| C[N+]1(C)CCC(Oc2ccccc2-c2cc(C(N)=O)c(NC(N)=O)s2)C1 (racemic) | 46 | 53 | 4.3 | 903 |  |  |
| CC(C)(C)NCC(O)c1ccc(O)c(CO)c1 (centres undefined) [ALBUTEROL] | 270 | 11 | 15 | 58 |  |  |
| CN(C)C(=N)N=C(N)N [METFORMIN] | 110 |  |  | 5.4 |  |  |
| CNS(=O)(=O)Cc1ccc2[nH]cc(CCN(C)C)c2c1 | 94 | 15 | 3.3 | 620 |  |  |
| N#Cc1ccc(OC2CCNC2)c(-c2cc(C(N)=O)c(NC(N)=O)s2)c1 (racemic) | 22 | 39 | 1.6 | 1653 |  |  |
| CN/C(=N/CCSCc1nc[nH]c1C)NC#N [CIMETIDINE] | 270 | 6.5 | 15 | 65 |  |  |
| NC(=O)Nc1sc(-c2ccccc2OC2CNC2)cc1C(N)=O | 63 | 11 | 2.2 | 641 |  |  |
| C[N+]1(C)[C@@H]2C[C@@H](OC(=O)C(O)(c3cccs3)c3cccs3)C[C@H]1[C@@H]1O[C@@H]12 [TIOTROPIUM] | 460 | 75 | 39 | 820 |  |  |
| NCCOc1ccccc1-c1nc(C(N)=O)c(NC(N)=O)s1 | 40 | 13 | 1.3 | 796 |  |  |
| N=C(N)NC(=O)c1nc(Cl)c(N)nc1N [AMILORIDE] | 1660 | 76 | 74 | 1430 |  |  |
| CC[N+](C)(CC)CCOC(=O)C(O)(c1ccccc1)C1CCCCC1 (centres undefined) [OXYPHENONIUM] | 230 | 25 | 14 | 640 |  |  |
| NCCCOc1ccccc1-c1nc(C(N)=O)c(NC(N)=O)s1 | 23 | 14 | 1.5 | 739 |  |  |
| Solute carrier family 22 member 2 (Homo sapiens) (protein) MPTTVDDVLEHGGEFHFFQKQMFFLLALLSATFAPIYVGIVFLGFTPDHRCRSPGVAELSLRCGWSPAEELNYTVPGPGPAGEASPRQCRRYEVDWNQSTFDCVDPLASLDTNRSRLPLGPCRDGWVYETPGSSIVTEFNLVCANSWMLDLFQSSVNVGFFIGSMSIGYIADRFGRKLCLLTTVLINAAAGVLMAISPTYTWMLIFRLIQGLVSKAGWLIGYILITEFVGRRYRRTVGIFYQVAYTVGLLVLAGVAYALPHWRWLQFTVSLPNFFFLLYYWCIPESPRWLISQNKNAEAMRIIKHIAKKNGKSLPASLQRLRLEEETGKKLNPSFLDLVRTPQIRKHTMILMYNWFTSSVLYQGLIMHMGLAGDNIYLDFFYSALVEFPAAFMIILTIDRIGRRYPWAASNMVAGAACLASVFIPGDLQWLKIIISCLGRMGITMAYEIVCLVNAELYPTFIRNLGVHICSSMCDIGGIITPFLVYRLTNIWLELPLMVFGVLGLVAGGLVLLLPETKGKALPETIEEAENMQRPRKNKEKMIYLQVQKLDIPLN |  |  |  |  | 60 |  |
| Solute carrier family 22 member 1 (Homo sapiens) (protein) MPTVDDILEQVGESGWFQKQAFLILCLLSAAFAPICVGIVFLGFTPDHHCQSPGVAELSQRCGWSPAEELNYTVPGLGPAGEAFLGQCRRYEVDWNQSALSCVDPLASLATNRSHLPLGPCQDGWVYDTPGSSIVTEFNLVCADSWKLDLFQSCLNAGFLFGSLGVGYFADRFGRKLCLLGTVLVNAVSGVLMAFSPNYMSMLLFRLLQGLVSKGNWMAGYTLITEFVGSGSRRTVAIMYQMAFTVGLVALTGLAYALPHWRWLQLAVSLPTFLFLLYYWCVPESPRWLLSQKRNTEAIKIMDHIAQKNGKLPPADLKMLSLEEDVTEKLSPSFADLFRTPRLRKRTFILMYLWFTDSVLYQGLILHMGATSGNLYLDFLYSALVEIPGAFIALITIDRVGRIYPMAMSNLLAGAACLVMIFISPDLHWLNIIIMCVGRMGITIAIQMICLVNAELYPTFVRNLGVMVCSSLCDIGGIITPFIVFRLREVWQALPLILFAVLGLLAAGVTLLLPETKGVALPETMKDAENLGRKAKPKENTIYLKVQTSEPSGT |  |  |  |  |  | 140 |
